IC50, inhibition and Ratio IC50 data for eight compounds are collected here from ChEMBL document CHEMBL4007419, “Discovery of hyaluronidase inhibitors from natural products and their mechanistic characterization under DMSO-perturbed assay conditions” (Bioorg Med Chem Lett, 2017).

Calls of active or inactive are those of the source. The rule behind the calls is not given here.

Assay [1] in a line: Inhibition of hyaluronidase (unknown origin) using hyaluronic acid as substrate preincubated for 20 mins followed by substrate addition measured after 40 mins by colorimetric method. More on the design: species or system Homo sapiens.
Assay [2] is filed under the species Homo sapiens. Kind of assay: Inhibition of CaCl2 activated hyaluronidase (unknown origin) up to 4000 uM using hyaluronic acid as substrate preincubated for 20 mins followed by substrate addition measured after 10 mins in presence of up to 20% DMSO by colorimetric method.
The species named for assay [3] is Homo sapiens. Briefly: Inhibition of CaCl2 activated hyaluronidase (unknown origin) up to 3000 uM using hyaluronic acid as substrate preincubated for 20 mins followed by substrate addition measured after 10 mins in presence of up to 21% DMSO by colorimetric method.
Assay [4] can be described thus: Inhibition of CaCl2 activated hyaluronidase (unknown origin) using hyaluronic acid as substrate preincubated for 20 mins followed by substrate addition measured after 10 mins by colorimetric method. More on the design: species or system Homo sapiens.
For assay [5], the species on record is Homo sapiens. Kind of assay: Non-competitive inhibition of hyaluronidase (unknown origin) up to 1000 um using hyaluronic acid as substrate preincubated for 20 mins followed by substrate addition measured after 10 mins by Lineweaver-Burk plot analysis.
Assay [6] in a line: Inhibition of CaCl2 activated hyaluronidase (unknown origin) using hyaluronic acid as substrate preincubated for 20 mins followed by substrate addition measured after 10 mins in presence of dithiothreitol by colorimetric method. Set-up: species or system Homo sapiens.
Assay [7] in a line: Inhibition of hyaluronidase (unknown origin) using hyaluronic acid as substrate preincubated for 20 mins followed by CaCl2 activation for 20 mins and subsequent substrate addition measured after 10 mins by colorimetric method. More on the design: species or system Homo sapiens.
A short description of assay [8]: Inhibition of CaCl2 activated hyaluronidase (unknown origin) using hyaluronic acid as substrate preincubated for 20 mins followed by substrate addition measured after 10 mins in presence of Triton-X-100 by colorimetric method. More on the design: species or system Homo sapiens.
Assay [9] is filed under the species Homo sapiens. Kind of assay: Ratio of IC50 for CaCl2 activated hyaluronidase (unknown origin) to IC50 for hyaluronidase (unknown origin) using hyaluronic acid as substrate preincubated for 20 mins followed by CaCl2 activation.
The species entered for assay [10] is Homo sapiens. Kind of assay: Inhibition of CaCl2 activated hyaluronidase (unknown origin) up to 400 uM using hyaluronic acid as substrate preincubated for 20 mins followed by substrate addition measured after 10 mins in presence of up to 15% DMSO by colorimetric method.

The compound `CC1(C)CC[C@]2(C(=O)O[C@@H]3O[C@H](CO)[C@@H](O)[C@H](O)[C@H]3O)CC[C@]3(C)C(=CC[C@@H]4[C@@]5(C)CC[C@H](O[C@@H]6O[C@H](C(=O)O)[C@@H](O)[C@H](O)[C@H]6O[C@@H]6O[C@H](CO)[C@@H](O)[C@H](O)[C@H]6O)C(C)(C)[C@@H]5CC[C@]43C)[C@@H]2C1` [GINSENOSIDE R0] yielded an IC50 in [1] of 34 µM.

In the case of `Oc1cc(O)c2c(c1)O[C@@H](c1ccc(O)c(O)c1)[C@H](O)C2` [(-)-CATECHIN], inhibition in [1] was half-maximal at 1100 µM (IC50).

As to `Oc1cc(O)c2c(c1)O[C@H](c1ccc(O)c(O)c1)[C@@H](O)C2`, the inhibition result in the assay filed under Homo sapiens [2] was “Active”.

Compound `O=C(O)[C@H]1O[C@@H](Oc2cc3oc(-c4ccccc4)cc(=O)c3c(O)c2O)[C@H](O)[C@@H](O)[C@@H]1O` [BAICALIN] displayed an IC50 in assay [1] of 506 µM.

In the case of `O=C(O[C@@H]1Cc2c(O)cc(O)cc2O[C@@H]1c1cc(O)c(O)c(O)c1)c1cc(O)c(O)c(O)c1`, the inhibition result in the assay filed under Homo sapiens [3] was “Active”.

For `CC1(C)[C@@H](O[C@H]2O[C@H](C(=O)O)[C@@H](O)[C@H](O)[C@H]2O[C@@H]2O[C@H](C(=O)O)[C@@H](O)[C@H](O)[C@H]2O)CC[C@]2(C)[C@H]3C(=O)C=C4[C@@H]5C[C@@](C)(C(=O)O)CC[C@]5(C)CC[C@@]4(C)[C@]3(C)CC[C@@H]12` [GLYCYRRHIZIN], in [1], half-maximal inhibition (IC50) was put at 8.5 µM.

`Oc1cc(O)c2c(c1)O[C@H](c1ccc(O)c(O)c1)[C@H](O)C2` [(-)-EPICATECHIN]: the inhibition entry in the assay listed under Homo sapiens [3] and in the assay filed under Homo sapiens [5] was “Active” each time. Moreover, the IC50 in assay [4] worked out at 789 µM; in [1], 804 µM; in assay [6], 806 µM; in [7], 685 µM; in assay [8] it was 734 µM.

In the case of `CC1(C)CC[C@]2(C(=O)O[C@@H]3O[C@H](CO)[C@@H](O)[C@H](O)[C@H]3O)CC[C@]3(C)C(=CC[C@@H]4[C@@]5(C)CC[C@H](O[C@@H]6O[C@H](C(=O)O)[C@@H](O[C@@H]7O[C@@H](CO)[C@H](O)[C@H]7O)[C@H](O)[C@H]6O)C(C)(C)[C@@H]5CC[C@]43C)[C@@H]2C1`, the Ratio IC50 in the assay filed under Homo sapiens [9] was 2.5. For the same compound, the IC50 was determined as 80 µM in assay [4], 24 µM in [1], 30 µM in [7] and 190 µM in [8]. Also, the inhibition entry in the assay filed under Homo sapiens [10] was “inactive”.

As usually defined, the IC50 is the concentration needed to halve the response being measured.
